Test results as given in patent US20060292254A1, “Orally and nasally administered appetite suppressant” (priority 2005, published 2006).

System: food intake in food deprived rats
Test: Effect of intranasal administration of capsaicin on food intake in food deprived rats
Assay type: in vivo, Male Sprague-Dawley rats
Conditions: intra-nasal liquid solution, 0.02-2 mg/kg of body weight, food introduced one hour after administration, consumption determined after 4, 12 and 24 hours, mush diet
Source text: Male Sprague-Dawley rats, 150-175 g at the start of the experiments (Charles River Laboratories, Wilmington, Mass.) were housed individually in suspended wire mesh cages. Rats had ad libitum access to tap water and food (Rodent Laboratory Chow No. 5001-pellet form, Purina) on non-testing days. A mush diet, used for experiments on food-deprived animals, and composed of equal parts by weight of ground rodent chow (Purina, #5001-meal form) and a 4% nutrient agar solution (Teklad Diets) was presented to the animals in glass jars. This agar-based chow diet allows for a more accurate measurement of food intake, and has been shown previously to be sufficient for maintaining normal rat growth.
Capsaicin was prepared as a liquid solution and administered intra-nasally, The drug dosage ranged from 0.02-2 mg/kg of body weight. Control animals were administered placebo formulation without capsaicin. One hour after administration, pre-weighed food jars were introduced into the cage and a sheet of clean white paper placed under each cage to catch any spillage. The amount of food consumed after 4, 12 and 24 hours was determined to the nearest 0.01 g.

Compound: COc1cc(CNC(=O)CCCC/C=C/C(C)C)ccc1O [Capsaicin]
- amount of food consumed versus placebo: significantly less food
